Molecular target: human PDE4D catalytic domain (UniProt no. Q08499) (Homo sapiens (Human), UniProt Q08499)
Assay: PDE4 assay (TR-FRET, FAM-cAMP cleavage)
Assay type: biochemical
Conditions: human PDE4D catalytic domain; molar concentration giving 50% inhibition of substrate cleavage; read-out: PDE4 IC50 range
Procedure: The human PDE4D catalytic domain (UniProt no. Q08499 [[…]]) was incubated with a mixture of non-labelled cAMP (cyclic adenosine monophosphate) and fluorescein amidite (FAM) conjugated cAMP and titrated test or reference compound. Following brief incubation the enzymatic reaction was stopped by addition of binding buffer containing nanoparticles with immobilized trivalent metal ions capable of binding 1) AMP phospho groups and 2) terbium (Tb) donor fluorophores. Subsequent excitation of the Tb donor triggers time-resolved FRET to adjacent FAM acceptor molecules resulting in light emission. In the presence of a PDE4 inhibitor, AMP generation was reduced resulting in a lower fluorescence signal. The cAMP phosphodiester is not bound by the detection system.
The results were calculated as the molar concentrations resulting in 50% inhibition of the substrate cleavage compared to controls samples, and are expressed as a range of IC50 (nM).

Sequence of human PDE4D catalytic domain (Q08499 380-740 limits assumed): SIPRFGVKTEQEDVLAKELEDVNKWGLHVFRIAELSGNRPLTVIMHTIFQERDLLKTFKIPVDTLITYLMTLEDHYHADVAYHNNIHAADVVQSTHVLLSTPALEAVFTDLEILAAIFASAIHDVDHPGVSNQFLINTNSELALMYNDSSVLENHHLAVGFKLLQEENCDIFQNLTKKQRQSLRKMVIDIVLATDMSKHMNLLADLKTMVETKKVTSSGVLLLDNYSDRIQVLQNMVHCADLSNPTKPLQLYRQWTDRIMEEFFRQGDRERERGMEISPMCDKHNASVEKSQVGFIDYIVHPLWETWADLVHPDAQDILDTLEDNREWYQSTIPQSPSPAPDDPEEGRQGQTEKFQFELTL

Compound	IC50
CCc1nn(CCCOC(=O)c2ccc(OC)c(F)c2)c2c1C(=O)NCC1(CCOCC1)C2 [Example 62, 3-(3-ethyl-4-oxo-spiro[6,8-dihydro-5H-pyrazolo[4,3-c]azepine-7,4′-tetrahydropyran]-1-yl)propyl 3-fluoro-4-methoxy-benzoate]	< 100 nM
CCc1nn(C[C@@H](C)COC(=O)c2cccc(Cl)c2OC)c2c1C(=O)NCC1(CCOCC1)C2 [Example 209, [(2R)-3-(3-ethyl-4-oxo-spiro[6,8-dihydro-5H-pyrazolo[4,3-c]azepine-7,4′-tetrahydropyran]-1-yl)-2-methyl-propyl] 3-chloro-2-methoxy-benzoate]	< 100 nM
CCc1nn(C[C@@H](C)COC(=O)c2c(F)cccc2OC)c2c1C(=O)NCC1(CCOCC1)C2 [Example 194, [(2R)-3-(3-ethyl-4-oxo-spiro[6,8-dihydro-5H-pyrazolo[4,3-c]azepine-7,4′-tetrahydropyran]-1-yl)-2-methyl-propyl] 2-fluoro-6-methoxy-benzoate]	< 100 nM
CCc1nn(CCCOC(=O)c2cc(F)cc(C(F)(F)F)c2)c2c1C(=O)NCC1(CCOCC1)C2 [Example 108, 3-(3-ethyl-4-oxo-spiro[6,8-dihydro-5H-pyrazolo[4,3-c]azepine-7,4′-tetrahydropyran]-1-yl)propyl 3-fluoro-5-(trifluoromethyl)benzoate]	< 100 nM
CCc1nn(CCCOC(=O)c2cccc(S(N)(=O)=O)c2)c2c1C(=O)NCC1(CCOCC1)C2 [Example 102, 3-(3-ethyl-4-oxo-spiro[6,8-dihydro-5H-pyrazolo[4,3-c]azepine-7,4′-tetrahydropyran]-1-yl)propyl 3-sulfamoylbenzoate]	< 100 nM
CCc1nn(CCCOC(=O)[C@H]2CC[C@@H](O)CC2)c2c1C(=O)NCC1(CCOCC1)C2 [Example 21, 3-(3-ethyl-4-oxo-spiro[6,8-dihydro-5H-pyrazolo[4,3-c]azepine-7,4′-tetrahydropyran]-1-yl)propyl cis-4-hydroxycyclohexane-carboxylate]	100 to 500 nM
CCc1nn(CCCOC(=O)c2cccc(F)c2F)c2c1C(=O)NCC1(CCOCC1)C2 [Example 45, 3-(3-ethyl-4-oxo-spiro[6,8-dihydro-5H-pyrazolo[4,3-c]azepine-7,4′-tetrahydropyran]-1-yl)propyl 2,3-difluorobenzoate]	< 100 nM
CCc1nn(C[C@@H](C)COC(=O)c2ccc(F)c(OC)c2)c2c1C(=O)NCC1(CCOCC1)C2 [Example 193, [(2R)-3-(3-ethyl-4-oxo-spiro[6,8-dihydro-5H-pyrazolo[4,3-c]azepine-7,4′-tetrahydropyran]-1-yl)-2-methyl-propyl] 4-fluoro-3-methoxy-benzoate]	< 100 nM
CCc1nn(C[C@@H](C)COC(=O)c2ccc(OC)c(F)c2)c2c1C(=O)NCC1(CCOCC1)C2 [Example 188, [(2R)-3-(3-ethyl-4-oxo-spiro[6,8-dihydro-5H-pyrazolo[4,3-c]azepine-7,4′-tetrahydropyran]-1-yl)-2-methyl-propyl] 3-fluoro-4-methoxy-benzoate]	< 100 nM
CCc1nn(C[C@@H](C)COC(=O)c2cc(F)ccc2C(F)(F)F)c2c1C(=O)NCC1(CCOCC1)C2 [Example 223, [(2R)-3-(3-ethyl-4-oxo-spiro[6,8-dihydro-5H-pyrazolo[4,3-c]azepine-7,4′-tetrahydropyran]-1-yl)-2-methyl-propyl] 5-fluoro-2-(trifluoromethyl)benzoate]	< 100 nM
CCc1nn(CCCOC(=O)c2cccc(S(=O)(=O)CC)c2)c2c1C(=O)NCC1(CCOCC1)C2 [Example 114, 3-(3-ethyl-4-oxo-spiro[6,8-dihydro-5H-pyrazolo[4,3-c]azepine-7,4′-tetrahydropyran]-1-yl)propyl 3-ethylsulfonylbenzoate]	< 100 nM
CCc1nn(CCCOC(=O)c2cccc(C(=O)N3CCOCC3)c2)c2c1C(=O)NCC1(CCOCC1)C2 [Example 157, 3-(3-ethyl-4-oxo-spiro[6,8-dihydro-5H-pyrazolo[4,3-c]azepine-7,4′-tetrahydropyran]-1-yl)propyl 3-(morpholine-4-carbonyl)benzoate]	< 100 nM
CCc1nn(CCCOC(=O)c2ccc(S(=O)(=O)N(C)C)cc2)c2c1C(=O)NCC1(CCOCC1)C2 [Example 131, 3-(3-ethyl-4-oxo-spiro[6,8-dihydro-5H-pyrazolo[4,3-c]azepine-7,4′-tetrahydropyran]-1-yl)propyl 4-(dimethylsulfamoyl) benzoate]	< 100 nM
CCc1nn(CCCOC(=O)c2ccc(C)c(C(F)(F)F)c2)c2c1C(=O)NCC1(CCOCC1)C2 [Example 103, 3-(3-ethyl-4-oxo-spiro[6,8-dihydro-5H-pyrazolo[4,3-c]azepine-7,4′-tetrahydropyran]-1-yl)propyl 4-methyl-3-(trifluoromethyl)benzoate]	< 100 nM
CCc1nn(CCCOC(=O)c2cccc(OC)c2Cl)c2c1C(=O)NCC1(CCOCC1)C2 [Example 91, 3-(3-ethyl-4-oxo-spiro[6,8-dihydro-5H-pyrazolo[4,3-c]azepine-7,4′-tetrahydropyran]-1-yl)propyl 2-chloro-3-methoxy-benzoate]	< 100 nM
CCc1nn(CCCOC(=O)c2cccc(OC)c2F)c2c1C(=O)NCC1(CCOCC1)C2 [Example 66, 3-(3-ethyl-4-oxo-spiro[6,8-dihydro-5H-pyrazolo[4,3-c]azepine-7,4′-tetrahydropyran]-1-yl)propyl 2-fluoro-3-methoxy-benzoate]	< 100 nM
CCc1nn(CCCOC(=O)c2ccc(C(N)=O)cc2)c2c1C(=O)NCC1(CCOCC1)C2 [Example 140, 3-(3-ethyl-4-oxo-spiro[6,8-dihydro-5H-pyrazolo[4,3-c]azepine-7,4′-tetrahydropyran]-1-yl)propyl 4-carbamoylbenzoate]	< 100 nM
CCc1nn(CCCOC(=O)c2cc(C#N)ccc2F)c2c1C(=O)NCC1(CCOCC1)C2 [Example 56, 3-(3-ethyl-4-oxo-spiro[6,8-dihydro-5H-pyrazolo[4,3-c]azepine-7,4′-tetrahydropyran]-1-yl)propyl 5-cyano-2-fluoro-benzoate]	< 100 nM
CCc1nn(CCCOC(=O)c2cccc(S(=O)(=O)C(C)C)c2)c2c1C(=O)NCC1(CCOCC1)C2 [Example 129, 3-(3-ethyl-4-oxo-spiro[6,8-dihydro-5H-pyrazolo[4,3-c]azepine-7,4′-tetrahydropyran]-1-yl)propyl 3-isopropylsulfonylbenzoate]	< 100 nM
CCc1nn(CCCOC(=O)c2ccc(Cl)cc2)c2c1C(=O)NCC1(CCOCC1)C2 [Example 42, 3-(3-ethyl-4-oxo-spiro[6,8-dihydro-5H-pyrazolo[4,3-c]azepine-7,4′-tetrahydropyran]-1-yl)propyl 4-chlorobenzoate]	< 100 nM
CCc1nn(CCCOC(=O)c2cc(Cl)ccc2F)c2c1C(=O)NCC1(CCOCC1)C2 [Example 83, 3-(3-ethyl-4-oxo-spiro[6,8-dihydro-5H-pyrazolo[4,3-c]azepine-7,4′-tetrahydropyran]-1-yl)propyl 5-chloro-2-fluoro-benzoate]	< 100 nM

Same assay, conditions: read-out: PDE4 IC50 range

Compound	IC50
CCc1nn(CC(C)(C)COC(=O)c2cc(C(F)(F)F)ccc2Cl)c2c1C(=O)NCC1(CCOCC1)C2 [Example 315, [3-(3-ethyl-4-oxo-spiro[6,8-dihydro-5H-pyrazolo[4,3-c]azepine-7,4′-tetrahydropyran]-1-yl)-2,2-dimethyl-propyl] 2-chloro-5-(trifluoromethyl)benzoate]	< 100 nM
CCc1nn(CC2(COC(=O)c3cccc(F)c3)CC2)c2c1C(=O)NCC1(CCOCC1)C2 [Example 352, [1-[(3-ethyl-4-oxo-spiro[6,8-dihydro-5H-pyrazolo[4,3-c]azepine-7,4′-tetrahydropyran]-1-yl)methyl]cyclopropyl]methyl 3-fluorobenzoate]	< 100 nM
CCc1nn(CC2(COC(=O)c3cccc(F)c3)COC2)c2c1C(=O)NCC1(CCOCC1)C2 [Example 358, [3-[(3-ethyl-4-oxo-spiro[6,8-dihydro-5H-pyrazolo[4,3-c]azepine-7,4′-tetrahydropyran]-1-yl)methyl]oxetan-3-yl]methyl 3-fluorobenzoate]	< 100 nM
CCc1nn(CC(C)(C)COC(=O)c2cccc(C(=O)NC(C)C)c2)c2c1C(=O)NCC1(CCOCC1)C2 [Example 343, [3-(3-ethyl-4-oxo-spiro[6,8-dihydro-5H-pyrazolo[4,3-c]azepine-7,4′-tetrahydropyran]-1-yl)-2,2-dimethyl-propyl] 3-(isopropylcarbamoyl)-benzoate]	< 100 nM
CCc1nn(CC(C)(C)COC(=O)c2cccc(C(F)(F)F)c2)c2c1C(=O)NCC1(CCOCC1)C2 [Example 302, [3-(3-ethyl-4-oxo-spiro[6,8-dihydro-5H-pyrazolo[4,3-c]azepine-7,4′-tetrahydropyran]-1-yl)-2,2-dimethyl-propyl] 3-(trifluoromethyl)benzoate]	< 100 nM
CCc1nn(CC(C)(C)COC(=O)c2cc(F)cc(C(F)(F)F)c2)c2c1C(=O)NCC1(CCOCC1)C2 [Example 310, [3-(3-ethyl-4-oxo-spiro[6,8-dihydro-5H-pyrazolo[4,3-c]azepine-7,4′-tetrahydropyran]-1-yl)-2,2-dimethyl-propyl] 3-fluoro-5-(trifluoromethyl)benzoate]	< 100 nM
CCc1nn(CC(C)(C)COC(=O)c2ccc(C(=O)N3CCOCC3)cc2)c2c1C(=O)NCC1(CCOCC1)C2 [Example 336, [3-(3-ethyl-4-oxo-spiro[6,8-dihydro-5H-pyrazolo[4,3-c]azepine-7,4′-tetrahydropyran]-1-yl)-2,2-dimethyl-propyl] 4-(morpholine-4-carbonyl)benzoate]	< 100 nM
